Biological target: T1, HIV-1 reverse transcriptase (Human immunodeficiency virus type 1 group M subtype B, UniProt P04585)
T1 construct: equivalent to 2.85nM for an equimolar mixture of p66 and p51 polypeptides; host or cells: E. coli
Test: Assay for reverse transcriptase activity (incorporation of radioactive dGMP from [3H]dGTP into Poly (rC). p(dG)12-18)
Type: biochemical, human immunodeficiency virus type 1 (HIV-1)
Conditions: for IC50: approximate, from plot of % inhibition against concentration of inhibitor, 1.02µM [3H]dGTP, 65 minutes at 37°C
Method: Chemicals [^3H]dGTP (16.3 Ci/mmol) was purchased from Amersham International, Aylesbury, U.K. Template primer Poly (rC). p(dG)12-18 (1:1, rC:dG ratio) and 2',3'-dideoxyguanosine-5-triphosphate (ddGTP) were obtained from Pharmacia Ltd., Milton Keynes, U.K. Penciclovir triphosphate (PCV-TP) was prepared in the laboratories of SmithKline Beecham Pharmaceuticals, Great Burgh, United Kingdom.
Reverse transcriptase Purified, E. coli expressed HIV-1 reverse transcriptase (RT) was supplied by the Protein Biochemistry Department of SmithKline Beecham Pharmaceuticals, Upper Merion, U.S.A. The enzyme was stored and diluted in a buffer containing 50mM Tris-HCl (pH 8.0), 10mM Hepes, 110mM NaCl, 5.7mM DTT, 0.3mM EDTA, 0.06% Triton X-100, 50% glycerol.
Assay for reverse transcriptase activity The reaction mixture for the HIV-1 RT assay contained in a volume of 120µl: 33mM Tris HCl (pH 8.0), 100mM KCl, 3.3mM MgCl2, 3.3mM dithiothreitol, 0.2mM glutathione, 0.33mM EGTA (ethylene glycol-bis-(β-aminoethyl ether) N,N-tetra acetic acid), 0.033% Triton X-100, 1.02µM [^3H]dGTP, 0-12.39µM inhibitors ddGTP, PCV-TP, 0.3 A260 units/ml Poly (rC). p(dG)12-18 and 167ng/ml RT (equivalent to 2.85nM for an equimolar mixture of p66 and p51 polypeptides). The reaction mixtures without RT were prepared in the microwells of a 96-well plate and preincubated at 37°C before the reactions were started by the addition of 20µl of the enzyme solution. The plates were then incubated for 65 minutes at 37°C. The incorporation rate was linear for the uninhibited control reaction over this time period. The reactions were terminated by the addition of 40µl of EDTA solution (0.2M, pH7.0). The individual reaction mixtures were transferred to a DEAE filter mat (1205-405, LKB Wallac, Finland), prewetted with 0.3M NaCl/0.03M Na citrate, using a cell harvester (1295-001, LKB Wallac). The filter mat was washed three times in the NaCl/Na citrate buffer and then once in 95% ethanol. Scintillation fluid (Beta Plate Scint, LKB Wallac) was added to the dried filter, and the reaction mixtures assayed for incorporation of radioactive dGMP in an LKB 1205 Beta Plate Liquid Scintillation Counter.

In the case of `Nc1nc2c(ncn2[C@H]2CC[C@@H](COP(=O)(O)OP(=O)(O)OP(=O)(O)O)O2)c(=O)[nH]1` [ddGTP, 2',3'-dideoxyguanosine-5-triphosphate, reference compound], the inhibition at 0.001 µM (1 nM ddGTP) is reported as 0%, the “Incorporation of dGMP” value (1 nM ddGTP, uninhibited control 117892) is reported as 119726 c.p.m and the inhibition at 0.01 µM (10 nM ddGTP) is reported as 23.7%. The “Incorporation of dGMP” value (10 nM ddGTP, uninhibited control 117892) was 89949 c.p.m, the inhibition at 0.025 µM (25 nM ddGTP) was 50.2% and the “Incorporation of dGMP” value (25 nM ddGTP, uninhibited control 117892) was 58703 c.p.m. For the same compound, the inhibition at 0.05 µM (50 nM ddGTP) was 70.2%, the “Incorporation of dGMP” value (50 nM ddGTP, uninhibited control 117892) was 35091 c.p.m and the inhibition at 0.075 µM (75 nM ddGTP) was 77.8%. The “Incorporation of dGMP” value (75 nM ddGTP, uninhibited control 117892) was 26132 c.p.m, the inhibition at 0.1 µM (100 nM ddGTP) was 81.2% and the “Incorporation of dGMP” value (100 nM ddGTP, uninhibited control 117892) was 22161 c.p.m. It also gave an IC50 of 25 nM.

`Nc1nc2c(ncn2CCC(CO)COP(=O)(O)OP(=O)(O)OP(=O)(O)O)c(=O)[nH]1` (racemic) [PCV-TP, Penciclovir triphosphate] was tested, and the inhibition at 0.124 µM (0.124 µM PCV-TP) was 4%, the “Incorporation of dGMP” value (0.124 µM PCV-TP, uninhibited control 88892) was 85313 c.p.m and the inhibition at 1.24 µM (1.24 µM PCV-TP) was 21.2%. For the same compound, the “Incorporation of dGMP” value (1.24 µM PCV-TP, uninhibited control 88892) was 70061 c.p.m, the inhibition at 3.1 µM (3.10 µM PCV-TP) was 41.7% and the “Incorporation of dGMP” value (3.10 µM PCV-TP, uninhibited control 88892) was 51866 c.p.m. The inhibition at 6.19 µM (6.19 µM PCV-TP) was 63%, the “Incorporation of dGMP” value (6.19 µM PCV-TP, uninhibited control 88892) was 32921 c.p.m and the inhibition at 9.29 µM (9.29 µM PCV-TP) was 70.3%. The “Incorporation of dGMP” value (9.29 µM PCV-TP, uninhibited control 88892) was 26436 c.p.m, the inhibition at 12.39 µM (12.39 µM PCV-TP) was 73.2% and the “Incorporation of dGMP” value (12.39 µM PCV-TP, uninhibited control 88892) was 23844 c.p.m. It also gave an IC50 of 4300 nM.

Reference: EP0538305B1, “P[…] F[…] RELATED GUANINE DERIVATIVES FOR THE TREATMENT OF THE HIV-1 INFECTIONS” (BEECHAM GROUP PLC, priority 1990, dated 1992)
